Test [1] addresses PI3K-δ (PI3K(p1108/p857) (h)) (Homo sapiens, UniProt O00329). Kind of test: Evaluation of inhibitory activity against PI3K-δ (HTRF kinase assay). Particulars: for inhibition at 0.01 µM: compound concentration 0.01 μM, read-out: EXP_VALUE(% Inhibition) PI3K-δ 0.01 μM; for inhibition at 0.1 µM: read-out: EXP_VALUE(% Inhibition) PI3K-δ 0.1 μM. The class given is biochemical. The procedure, abridged: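 HTRF read-out (665/620 nm ratio ×10000) used Eu-labelled anti-GST, GST-tagged GRP1 PH domain and streptavidin-allophycocyanin after EDTA/PIP3 stop.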
In general terms: Time-resolved FRET reads energy transfer from a long-lived donor to a nearby acceptor.

The target of another test is DNA-PK(h) (Homo sapiens, UniProt P78527). Kind of test: Evaluation of inhibitory activity against DNA-PK (HTRF kinase assay, GST-cMyc-p53 substrate). The class given is biochemical. Particulars: for inhibition at 0.01 µM: compound concentration 0.01 μM, read-out: EXP_VALUE(% Inhibition) DNA-PK(h) 0.01 μM; for inhibition at 0.1 µM: read-out: EXP_VALUE(% Inhibition) DNA-PK(h) 0.1 μM. In a few lines:
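p53 Ser15 phosphorylation by human DNA-PK was measured by time-resolved FRET ratio (665/620 nm ×10000) using Eu-labelled anti-phospho-Ser15 and d2 anti-GST antibodies. Substrate GST-cMyc-p53 at 50 μM; Mg/ATP-initiated, 30 min at room temperature, EDTA stop.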

Molecules are shown by their SMILES. Like-named read-outs stand apart in the source and are kept apart here.

As usually defined, the inhibition is the relative decrease from the control value, in per cent.

PI3K-δ (PI3K(p1108/p857) (h)), sequence (O00329 whole entry, the tested form may be a part): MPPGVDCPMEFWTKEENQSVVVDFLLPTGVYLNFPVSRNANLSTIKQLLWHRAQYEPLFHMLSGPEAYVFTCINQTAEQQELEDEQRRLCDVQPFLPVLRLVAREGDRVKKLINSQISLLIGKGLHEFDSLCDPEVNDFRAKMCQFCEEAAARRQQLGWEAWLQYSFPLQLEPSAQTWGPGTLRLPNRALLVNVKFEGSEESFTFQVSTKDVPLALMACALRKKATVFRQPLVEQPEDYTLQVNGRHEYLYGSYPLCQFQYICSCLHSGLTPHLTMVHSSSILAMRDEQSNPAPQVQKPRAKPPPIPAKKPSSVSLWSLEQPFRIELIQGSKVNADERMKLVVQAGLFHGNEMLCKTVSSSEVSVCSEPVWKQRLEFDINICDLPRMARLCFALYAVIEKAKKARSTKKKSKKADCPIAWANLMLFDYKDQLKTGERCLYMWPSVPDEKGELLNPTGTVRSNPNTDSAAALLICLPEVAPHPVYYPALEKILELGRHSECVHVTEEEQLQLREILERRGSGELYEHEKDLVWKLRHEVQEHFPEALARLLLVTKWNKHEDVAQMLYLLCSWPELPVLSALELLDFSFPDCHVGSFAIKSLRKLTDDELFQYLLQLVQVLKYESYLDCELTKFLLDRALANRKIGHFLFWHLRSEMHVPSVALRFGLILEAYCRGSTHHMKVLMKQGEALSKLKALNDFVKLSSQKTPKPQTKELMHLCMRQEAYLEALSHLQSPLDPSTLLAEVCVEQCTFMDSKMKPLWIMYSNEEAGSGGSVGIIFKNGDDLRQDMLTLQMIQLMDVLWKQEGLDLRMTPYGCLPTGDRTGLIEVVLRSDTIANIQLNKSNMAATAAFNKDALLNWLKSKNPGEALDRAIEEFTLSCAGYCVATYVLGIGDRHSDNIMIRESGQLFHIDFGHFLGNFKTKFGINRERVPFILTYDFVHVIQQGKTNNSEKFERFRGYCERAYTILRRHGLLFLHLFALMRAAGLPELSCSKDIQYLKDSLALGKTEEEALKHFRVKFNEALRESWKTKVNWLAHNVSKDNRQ
PI3K-δ (PI3K(p1108/p857) (h)), sequence (P27986 whole entry partner, the tested form may be a part): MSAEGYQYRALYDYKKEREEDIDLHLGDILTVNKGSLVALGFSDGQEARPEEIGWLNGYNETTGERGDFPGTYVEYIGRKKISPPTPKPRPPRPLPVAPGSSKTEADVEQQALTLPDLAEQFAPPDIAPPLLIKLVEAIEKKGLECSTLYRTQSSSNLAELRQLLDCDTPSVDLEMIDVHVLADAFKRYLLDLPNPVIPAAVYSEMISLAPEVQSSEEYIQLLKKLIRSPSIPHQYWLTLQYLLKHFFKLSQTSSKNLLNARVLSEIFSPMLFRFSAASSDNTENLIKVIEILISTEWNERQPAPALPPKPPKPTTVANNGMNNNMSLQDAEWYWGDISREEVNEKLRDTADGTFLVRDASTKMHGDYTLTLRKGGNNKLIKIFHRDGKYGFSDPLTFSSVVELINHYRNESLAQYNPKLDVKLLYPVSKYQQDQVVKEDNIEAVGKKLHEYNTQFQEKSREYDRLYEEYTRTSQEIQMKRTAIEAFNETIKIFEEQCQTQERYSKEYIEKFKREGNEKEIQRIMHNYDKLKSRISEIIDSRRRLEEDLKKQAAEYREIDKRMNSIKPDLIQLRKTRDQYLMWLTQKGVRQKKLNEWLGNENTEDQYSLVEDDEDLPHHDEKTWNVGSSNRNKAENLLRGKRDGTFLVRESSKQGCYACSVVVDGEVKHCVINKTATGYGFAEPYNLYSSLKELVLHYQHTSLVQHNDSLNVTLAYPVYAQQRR

For the molecule `Cc1ccc(Oc2cccc3c(Cl)c([C@H](C)Nc4ncnc5[nH]ccc(=O)c45)n(-c4ccccc4)c(=O)c23)cc1` [Example 367, (S)-4-((1-(4-chloro-1-oxo-2-phenyl-8-(p-tolyloxy)-1,2-dihydroisoquinolin-3-yl)ethyl)amino)pyrido[2,3-d]pyrimidin-5(8H)-one], the inhibition at 0.01 µM in test [1] turned out to be 51%; on DNA-PK(h) it was 21%. The inhibition at 0.1 µM was determined as 93% in test [1] (compound concentration 0.1 μM) and 67% on DNA-PK(h) (compound concentration 0.1 μM).
Taken in the same sequence, the figures for `CC(Oc1cccc2c(Cl)c([C@H](C)Nc3ncnc4[nH]ccc(=O)c34)n(-c3ccccc3)c(=O)c12)c1ccncc1` (stereo partly drawn) [Example 368, 4-(((1S)-1-(4-chloro-1-oxo-2-phenyl-8-(1-(pyridin-4-yl)ethoxy)-1,2-dihydroisoquinolin-3-yl)ethyl)amino)pyrido[2,3-d]pyrimidin-5(8H)-one] were 72%, 50%, 94% and 85%.
Taken in the same sequence, the figures for `C[C@H](Nc1ncnc2[nH]ccc(=O)c12)c1c(Cl)c2cccc(SCc3ccc(Cl)cc3)c2c(=O)n1-c1ccccc1` [Example 369, (S)-4-((1-(4-chloro-8-((4-chlorobenzyl)thio)-1-oxo-2-phenyl-1,2-dihydroisoquinolin-3-yl)ethyl)amino)pyrido[2,3-d]pyrimidin-5(8H)-one] were 5%, 14%, 27% and 54%.
Taken in the same sequence, the figures for `C[C@H](Nc1ncnc2[nH]ccc(=O)c12)c1c(Cl)c2cccc(Sc3ccncc3)c2c(=O)n1-c1ccccc1` [Example 370, (S)-4-((1-(4-chloro-1-oxo-2-phenyl-8-(pyridin-4-ylthio)-1,2-dihydroisoquinolin-3-yl)ethyl)amino)pyrido[2,3-d]pyrimidin-5(8H)-one] were 69%, 39%, 96% and 76%.
For `C[C@H](Nc1ncnc2[nH]ccc(=O)c12)c1c(Cl)c2cccc(Sc3ccc(Cl)cc3)c2c(=O)n1-c1ccccc1` [Example 371, (S)-4-((1-(4-chloro-8-((4-chlorophenyl)thio)-1-oxo-2-phenyl-1,2-dihydroisoquinolin-3-yl)ethyl)amino)pyrido[2,3-d]pyrimidin-5(8H)-one], the inhibition at 0.01 µM in test [1] stood at 2%; at DNA-PK(h) it was 0%. In addition, the inhibition at 0.1 µM came to 10% in test [1] (compound concentration 0.1 μM) and 4% on DNA-PK(h) (compound concentration 0.1 μM).
Taken in the same sequence, the figures for `CCCSc1cccc2c(Cl)c([C@H](C)Nc3ncnc4[nH]ccc(=O)c34)n(-c3ccccc3)c(=O)c12` [Example 372, (S)-4-((1-(4-chloro-1-oxo-2-phenyl-8-(propylthio)-1,2-dihydroisoquinolin-3-yl)ethyl)amino)pyrido[2,3-d]pyrimidin-5(8H)-one] were 3%, 38%, 19% and 79%.
`C[C@H](Nc1ncnc2[nH]ccc(=O)c12)c1c(Cl)c2cccc(-c3ccc4c(c3)NC(=O)C(C)(C)O4)c2c(=O)n1-c1ccccc1` [Example 373, (S)-6-(4-chloro-1-oxo-3-(1-((5-oxo-5,8-dihydropyrido[2,3-d]pyrimidin-4-yl)amino)ethyl)-2-phenyl-1,2-dihydroisoquinolin-8-yl)-2,2-dimethyl-2H-benzo[b] [1,4]oxazin-3 (4H)-one]: the inhibition at 0.1 µM came out at 48% in test [1] (compound concentration 0.1 μM) and 36% on DNA-PK(h) (compound concentration 0.1 μM).
Turning to `COc1cc(-n2ccc(=O)c3c(N[C@@H](C)c4c(Cl)c5ccccc5c(=O)n4-c4ccccc4)ncnc32)ccn1` [Example 374, (S)-4-((1-(4-chloro-1-oxo-2-phenyl-1,2-dihydroisoquinolin-3-yl)ethyl)amino)-8-(2-methoxypyridin-4-yl)pyrido[2,3-d]pyrimidin-5(8H)-one], the figures for the inhibition at 0.1 µM (in test [1] (compound at 0.1 μM); at DNA-PK(h) (compound at 0.1 μM)) were 21% and 14%, respectively.
On the same counts, the results for `CC(C)Oc1cnc(-c2cccc3c(Cl)c([C@H](C)Nc4ncnc5[nH]ccc(=O)c45)n(-c4ccccc4)c(=O)c23)cn1` [Example 376, (S)-4-((1-(4-chloro-8-(5-isopropoxypyrazin-2-yl)-1-oxo-2-phenyl-1,2-dihydroisoquinolin-3-yl)ethyl)amino)pyrido[2,3-d]pyrimidin-5(8H)-one] are 49% and 18%.
On the same counts, the results for `C[C@H](Nc1ncnc2[nH]ccc(=O)c12)c1c(Cl)c2cccc(-c3cnc(-c4cccs4)nc3)c2c(=O)n1-c1ccccc1` [Example 377, (S)-4-((1-(4-chloro-1-oxo-2-phenyl-8-(2-(thiophen-2-yl)pyrimidin-5-yl)-1,2-dihydroisoquinolin-3-yl)ethyl)amino)pyrido[2,3-d]pyrimidin-5(8H)-one] are 59% and 30%.
For the molecule `C[C@H](Nc1ncnc2[nH]ccc(=O)c12)c1c(Cl)c2cccc(-c3cnc(-c4ccco4)nc3)c2c(=O)n1-c1ccccc1` [Example 378, (S)-4-((1-(4-chloro-8-(2-(furan-2-yl)pyrimidin-5-yl)-1-oxo-2-phenyl-1,2-dihydroisoquinolin-3-yl)ethyl)amino)pyrido[2,3-d]pyrimidin-5(8H)-one], the inhibition at 0.1 µM in test [1] (compound at 0.1 μM) turned out to be 61%; on DNA-PK(h) (compound at 0.1 μM), 18%.
Taken in the same sequence, the figures for `CCc1ncc(-c2cccc3c(Cl)c([C@H](C)Nc4ncnc5[nH]ccc(=O)c45)n(-c4ccccc4)c(=O)c23)cn1` [Example 379, (S)-4-((1-(4-chloro-8-(2-ethylpyrimidin-5-yl)-1-oxo-2-phenyl-1,2-dihydroisoquinolin-3-yl)ethyl)amino)pyrido[2,3-d]pyrimidin-5(8H)-one] were 80% and 74%.
Taken in the same sequence, the figures for `C[C@H](Nc1ncnc2[nH]ccc(=O)c12)c1c(Cl)c2cccc(-c3cc4ccccc4[nH]3)c2c(=O)n1-c1ccccc1` [Example 380, (S)-4-((1-(4-chloro-8-(1H-indol-2-yl)-1-oxo-2-phenyl-1,2-dihydroisoquinolin-3-yl)ethyl)amino)pyrido[2,3-d]pyrimidin-5(8H)-one] were 76% and 19%.
On the same counts, the results for `CC(C)c1ncc(-c2cccc3c(Cl)c([C@H](C)Nc4ncnc5[nH]ccc(=O)c45)n(-c4ccccc4)c(=O)c23)cn1` [Example 381, (S)-4-((1-(4-chloro-8-(2-isopropylpyrimidin-5-yl)-1-oxo-2-phenyl-1,2-dihydroisoquinolin-3-yl)ethyl)amino)pyrido[2,3-d]pyrimidin-5(8H)-one] are 81% and 69%.
As for `C[C@H](Nc1ncnc2[nH]ccc(=O)c12)c1c(Cl)c2cccc(-c3cnc(F)nc3)c2c(=O)n1-c1ccccc1` [Example 382, (S)-4-((1-(4-chloro-8-(2-fluoropyrimidin-5-yl)-1-oxo-2-phenyl-1,2-dihydroisoquinolin-3-yl)ethyl)amino)pyrido[2,3-d]pyrimidin-5(8H)-one], the figures for the inhibition at 0.1 µM (in test [1] (compound at 0.1 μM); on DNA-PK(h) (compound at 0.1 μM)) were 16% and 5%, respectively.

The values are drawn from patent publication US20230072683A1, “PYRIDO-PYRIMIDIN DERIVATIVES AND PHARMACEUTICAL COMPOSITION, FOR USE IN PREVENTING OR TREATING PI3 KINASE RELATED DISEASES, COMPRISING SAME AS ACTIVE INGREDIENT” (BORYUNG PHARMACEUTICAL CO., LTD, priority 2019, published 2023).
